Measured values taken from US4409238A, “Insecticides and insecticidal compositions” (Kuraray Co., Ltd., priority 1977, dated 1983).

Tests used:
[1] = system: houseflies (Musca domestica); experiment: Mortality test against houseflies by topical application method (Test Example 1); type: in vivo; conditions: female adult houseflies, 24 hours, 25° C.
Method: Each test compound was accurately weighed and a 1% solution and a 0.1% solution of the sample in acetone were prepared. A 1 μl portion of either of the above solutions was micropipetted onto the thoracic dorsal part of each female adult housefly (Musca domestica) under ether anaesthesia and the fly was released in a high-walled dish together with feed. The dish was covered with a metal-wire net and maintained at 25° C. After 24 hours, the test flies were inspected for deaths and the mortality (%) was calculated. Thirty test flies were used per concentration group.

[2] = system: house-flies; experiment: Settling mist mortality test against houseflies, oil preparations of Formulation Example 3 (Utility Example 4); type: in vivo, houseflies (Musca domestica); conditions: oil preparation with 0.1 part compound and 0.08 part permethrin per 100 parts, 24 hours
Method: To 0.1 part of each of Compounds [1] to [28] was added 0.08 part of permethrin, followed by the addition of a sufficient amount of kerosene to make 100 parts. The mixture was stirred to obtain an oil preparation of each compound.
(§1) By the settling mist method, a mortality test against house-flies was carried out using the oil preparations obtained in Formulation Example 3 from Compounds [1], [2], [5] to [11] and [17]. After 24 hours, the flies were examined for deaths. The mortality (%) was not less than 90% for each of Compounds [1], [2], [5] to [11] and [17].

[3] = system: houseflies (Musca domestica); experiment: Settling mist mortality test against houseflies, oil preparations of Formulation Example 1 (Utility Example 2); type: in vivo; conditions: oil preparation with 0.2 part compound and 0.8 part piperonyl butoxide per 100 parts, 24 hours
Method: 0.2 part of each of Compounds [1], [2], [5] to [13] and [17] was prepared and 0.8 part of piperonyl butoxide was added to each of them. To this mixture was added a sufficient amount of kerosene to make 100 parts, followed by stirring. By this procedure there was obtained an oil preparation of each Compound.
as §1, with “against houseflies (Musca domestica)” for “against house-flies”, “obtained according to” for “obtained in”, “Example 1” for “Example 3”, “[11] […]” for “[11] and”

[4] = system: green rice leafhoppers; experiment: Spray test on rice seedlings against green rice leafhoppers (Utility Example 1); type: in vivo, green rice leafhoppers (Nephotettix cincticeps); conditions: 30% emulsifiable concentrate (Formulation Example 5) diluted 300-fold, 10 ml/pot, 24 hours
Method: To 30 parts of each of Compounds [1], [2], [5] to [13] and [17] to [19] was added 50 parts of xylene and 20 parts of Sorpol SM-200 (a surfactant, trademark of Toho Chemical Co., Ltd.). The mixture was stirred well and dissolved to obtain a 30% emulsifiable concentrate.
The emulsifiable concentrate prepared from Compounds [1], [2], [6], [7], [9], [10], [12] and [13] in Formulation Example 5 were each diluted 300-fold with water. Then, each of the dilutions was sprayed over rice seedlings 25 days after sowing at the rate of 10 ml/pot. The pot was covered with a wire-net and 15 green rice leafhoppers were released under the net. After 24 hours, the leafhoppers were examined for deaths. The mortality (%) was not less than 90% for each of Compounds [1], [2], [6], [7], [9], [10], [12] and [13].

[5] = Light stability test (Test Example 4); type: physicochemical; conditions: direct sunlight between glass plates, 12° C., relative to aluminum foil-covered control; for remaining at 4 h: read-out: Residue (%) Exposure time 4 hrs.; for remaining at 8 h: read-out: Residue (%) Exposure time 8 hrs.
Method: Into 2.0 ml of acetone were dissolved 80 mg of each test compound. A 5 μl portion of the solution was taken and spread on a glass plate (Micro Standard Cover Glass, 18 m/m No. 1, 200 pcs, Matsunami Glass Ind., Ltd.) and the acetone was evaporated. Then, a similar glass plate was superimposed on the above plate in such a manner that the test liquid was sandwitched. The specimen was exposed to direct sunlight at an atmospheric temperature of 12° C. for a predetermined exposure time. As an unexposed control, a similar specimen was covered with an aluminum foil. The test liquid was washed away with 1.0 ml of methanol containing 0.04% of dioctyl phthalate as an internal reference and high-speed liquid chromatography was carried out on the washings to determine the residual amount of the test compound. The residue (%) was calculated with the value for the aluminum foil-covered control specimen as the standard.

[6] = system: cockroaches (Blattella germanica); experiment: Mortality test against cockroaches by topical application method (Test Example 3); type: in vivo; conditions: 1 μl of 1% solution in acetone, female cockroaches, 24 hours, 25° C.
Method: Each test compound was accurately weighed and made in a 1% solution in acetone. Then, 1 μl of the above solution was micropipetted onto the abdominal part of each female cockroach (Blattella germanica) under ether anaesthesia. The roaches were released in a high-walled dish together with feed and, after the disk was covered with a metal wire net, same was maintained at 25° C. Fifteen roaches per group were employed. After 24 hours, the test roaches were inspected for deaths and the mortality (%) for each group was calculated.

[7] = system: houseflies; experiment: Settling mist mortality test against houseflies, oil preparations of Formulation Example 2 (Utility Example 3); type: in vivo, houseflies (Musca domestica); conditions: oil preparation with 0.1 part compound and 0.1 part resmethrin per 100 parts, 24 hours
Method: To 0.1 part of each of Compounds [1] to [17] was added 0.1 part of resmethrin, followed by the addition of a sufficient amount of kerosene to make 100 parts. The mixture was stirred to obtain an oil preparation of each compound.
as §1, with “houseflies” for “house-flies”, “made” for “obtained”, “2” for “3”

[8] = system: green rice leafhoppers (Nephotettix cincticeps); experiment: Mortality test against green rice leafhoppers by topical application method (Test Example 2); type: in vivo; conditions: 0.1% solution in acetone, female adults, 24 hours, 25° C.
Method: Each test compound was accurately weighed and an 0.1% solution in acetone was prepared. Female adults of green rice leafhopper (Nephotettix cincticeps) were anaesthetized with carbon dioxide gas and 0.5 µl of the above solution was micropipetted onto the thoracic abdominal part of each leafhopper. Then, the test leafhoppers were kept at 25° C. with access to rice plant seedlings. Each group comprised 15 green rice leafhoppers. After 24 hours, the leafhoppers were inspected for deaths and the mortality (%) was calculated for each compound.

[9] = system: guppies; experiment: Fish toxicity test (Test Example 6); type: in vivo; conditions: female guppies, 48 hours, 25° C.; concentration at which 90% or more were killed
Method: To 5 l of water were added 250 mg of sorpol SM-200 (registered trademark, Toho Chemical Co., Ltd.) or Tween-20 (commercial product) as an emulsifier (surfactant) as well as 2.5 ml of an acetone solution containing one of the test compounds in a predetermined concentration. The mixture was stirred well to prepare a test water. Ten female guppies from 3 to 4 months of age were released into the test water and maintained at 25° C. The concentration of the test compound at which 90% or more of the guppies were killed during the ensuring 48 hours was determined. (This concentration is referred to as LC90).

[10] = Hydrolysis resistance test (Test Example 5); type: physicochemical; conditions: acetone/water, reflux for 2 days; read-out: Residue (%)
Method: Into about 8 ml of acetone were dissolved 100 mg of each test compound and, then, 1.0 g of water was added to this solution to prepare a mixed solution. This mixed solution was refluxed for 2 days. After concentration to about one half of the original volume and with the addition of dioctyl phthalate as an internal reference, the residual amount of the compound was determined by high-speed liquid chromatography. The residue (%) was then calculated.

| SMILES | Mortality (%) 1 μg/fly [1] [%] | Mortality (%) 10 μg/fly [1] [%] | Mortality (%) [2] | Mortality (%) [3] | Mortality (%) [4] | remaining at 4 h [5] [%] | remaining at 8 h [5] [%] | mortality at 1 %, 0.01 mg [6] [%] | Mortality (%) [7] | mortality at 0.1 % [8] [%] | LC90 [9] | remaining at 48 h [10] [%] |
| --- | --- | --- | --- | --- | --- | --- | --- | --- | --- | --- | --- | --- |
| CC(C)C(C=C(Cl)Cl)C(=O)OC(C#N)c1cccc(Oc2ccccc2)c1 (stereo not drawn) [Compound [1], α-Cyano-3-phenoxybenzyl α-(2,2-dichlorovinyl)isovalerate] | 100 | 100 | not less than 90% | not less than 90% | not less than 90% | 93 | 90 | 100 | not less than 90% | ≥ 90 |  |  |
| C#CC(OC(=O)C(C=C(Cl)Cl)C(C)C)c1cccc(Oc2ccccc2)c1 (stereo not drawn) [[2], α-Ethynyl-3-phenoxybenzyl α-(2,2-dichlorovinyl)isovalerate] | 100 | 100 | not less than 90% | not less than 90% | not less than 90% | 97 | 100 | 80 | not less than 90% |  | Not less than 10 ppm | > 90 |
